Tested on: K562 cells
Experiment: Cycle test: blocking in the G2/M phase evaluated by flow cytometry
Type: cell-based, human
Conditions: 24 hours, 10 μM, cells blocked in G2/M phase
Method: THE CYCLE TEST CORRESPONDS TO THE ANALYSIS OF THE BLOCKING IN THE G2/M PHASE OF A LINE OF HUMAN LEUKEMIC CELLS AS EVALUATED BY FLOW CYTOMETRY.
The k562 cells are incubated for 24 hours in the absence or in the presence of compounds according to the invention and/or reference compounds such as vincristine. In a first phase, the compounds are used at a concentration of 10 μM, whereby dose-response type studies may be carried out secondarily. After 24 hours the cells are exposed to propidium iodide, a DNA intercalating agent, and analyzed in flow cytometry. The results are expressed as a percentage of the cells blocked in the G2/M phase of the cell cycle.

| SMILES | G2/M inhibition in % [%] |
| --- | --- |
| COc1cc(OC)c(/C=C/C(=O)c2c(OC)cc(OC)cc2OC)c(OC)c1 [Example 2, 2,2′,4,4′,6,6′-hexamethoxychalcone] | 86 |
| COc1cc(OC)c(/C=C/C(=O)c2c(OC)cccc2OC)c(OC)c1 [Example 1, 2,2′,4,6,6′-pentamethoxychalcone] | 84 |
| COc1cccc(OC)c1/C=C/C(=O)c1c(OC)cccc1OC [Compound A, reference compound] | 78 |
| COc1ccc(C(=O)/C=C/c2c(OC)cc(OC)cc2OC)c(OC)c1 [Example 3, 2,2′,4,4′,6-pentamethoxychalcone] | 86 |

Same assay, conditions: concentration of the order of one micromolar

| SMILES | G2/M cycle blocking, dose-response (FIG. 1) |
| --- | --- |
| COc1cc(OC)c(/C=C/C(=O)c2c(OC)cc(OC)cc2OC)c(OC)c1 [Example 2, 2,2′,4,4′,6,6′-hexamethoxychalcone] | significant G2/M cycle blocking |
| COc1cc(OC)c(/C=C/C(=O)c2c(OC)cccc2OC)c(OC)c1 [Example 1, 2,2′,4,6,6′-pentamethoxychalcone] | significant G2/M cycle blocking |
| COc1cccc(OC)c1/C=C/C(=O)c1c(OC)cccc1OC [Compound A, reference compound] | no activity |

Tested on: CEM
Experiment: MTT test (in vitro cytotoxicity)
Type: cell-based
Conditions: Homo sapiens, CCRF-CEM, 72 hours
Method: (§1) The MMT test is a metabolic test used for evaluating the inhibition of proliferation of tumoral lines by a compound according to the invention. Several representative tumoral lines of different tumoral types such as breast cancer, colon cancer, otorhinolaryngological tumors, lung cancer, are incubated in a 96-well plate at variable concentrations of a compound according to the invention, for 72 hours and MTT is then added for a period of 1 hour. The MTT is a substrate of mitochondrial enzymes which is degraded in insoluble formazan blue. The crystals are then re-solubilized in isopropanol-HCl 0.1N and the plates are analyzed on an ELISA plate reader. Relative survival is calculated relatively to cells which have not been exposed to the compound according to the invention. The IC50 or inhibiting concentration 50 is the concentration value of the investigated compound according to the invention which induces a 50% reduction of proliferation relatively to the control.

| SMILES | IC50 [µM] |
| --- | --- |
| COc1cc(OC)c(/C=C/C(=O)c2c(OC)cc(OC)cc2OC)c(OC)c1 [Example 2, 2,2′,4,4′,6,6′-hexamethoxychalcone] | 1.9 |
| COc1cc(OC)c(/C=C/C(=O)c2c(OC)cccc2OC)c(OC)c1 [Example 1, 2,2′,4,6,6′-pentamethoxychalcone] | 0.65 |
| COc1cccc(OC)c1/C=C/C(=O)c1c(OC)cccc1OC [Compound A, reference compound] | 6 |

Tested on: HCT 116
Experiment: MTT test (in vitro cytotoxicity)
Type: cell-based
Conditions: Homo sapiens, 72 hours
Method: as §1

| SMILES | IC50 [µM] |
| --- | --- |
| COc1cc(OC)c(/C=C/C(=O)c2c(OC)cc(OC)cc2OC)c(OC)c1 [Example 2, 2,2′,4,4′,6,6′-hexamethoxychalcone] | 1 |
| COc1cc(OC)c(/C=C/C(=O)c2c(OC)cccc2OC)c(OC)c1 [Example 1, 2,2′,4,6,6′-pentamethoxychalcone] | 0.45 |
| COc1cccc(OC)c1/C=C/C(=O)c1c(OC)cccc1OC [Compound A, reference compound] | 9 |

Tested on: HNO 150
Experiment: MTT test (in vitro cytotoxicity)
Type: cell-based
Conditions: 72 hours
Method: as §1

| SMILES | IC50 [µM] |
| --- | --- |
| COc1cc(OC)c(/C=C/C(=O)c2c(OC)cc(OC)cc2OC)c(OC)c1 [Example 2, 2,2′,4,4′,6,6′-hexamethoxychalcone] | 10 |
| COc1cc(OC)c(/C=C/C(=O)c2c(OC)cccc2OC)c(OC)c1 [Example 1, 2,2′,4,6,6′-pentamethoxychalcone] | 1.3 |
| COc1cccc(OC)c1/C=C/C(=O)c1c(OC)cccc1OC [Compound A, reference compound] | 62 |

Tested on: K562
Experiment: MTT test (in vitro cytotoxicity)
Type: cell-based
Conditions: Homo sapiens, 72 hours
Method: as §1

| SMILES | IC50 [µM] |
| --- | --- |
| COc1cc(OC)c(/C=C/C(=O)c2c(OC)cc(OC)cc2OC)c(OC)c1 [Example 2, 2,2′,4,4′,6,6′-hexamethoxychalcone] | 50 |
| COc1cc(OC)c(/C=C/C(=O)c2c(OC)cccc2OC)c(OC)c1 [Example 1, 2,2′,4,6,6′-pentamethoxychalcone] | 50 |
| COc1cccc(OC)c1/C=C/C(=O)c1c(OC)cccc1OC [Compound A, reference compound] | 80 |

Tested on: L1210
Experiment: MTT test (in vitro cytotoxicity)
Type: cell-based
Conditions: Mus musculus, 72 hours
Method: as §1

| SMILES | IC50 [µM] |
| --- | --- |
| COc1cc(OC)c(/C=C/C(=O)c2c(OC)cc(OC)cc2OC)c(OC)c1 [Example 2, 2,2′,4,4′,6,6′-hexamethoxychalcone] | 8.5 |
| COc1cc(OC)c(/C=C/C(=O)c2c(OC)cccc2OC)c(OC)c1 [Example 1, 2,2′,4,6,6′-pentamethoxychalcone] | 7 |
| COc1cccc(OC)c1/C=C/C(=O)c1c(OC)cccc1OC [Compound A, reference compound] | 34 |

Tested on: MCF7
Experiment: MTT test (in vitro cytotoxicity)
Type: cell-based
Conditions: Homo sapiens, 72 hours
Method: as §1

| SMILES | IC50 [µM] |
| --- | --- |
| COc1cc(OC)c(/C=C/C(=O)c2c(OC)cc(OC)cc2OC)c(OC)c1 [Example 2, 2,2′,4,4′,6,6′-hexamethoxychalcone] | 52 |
| COc1cc(OC)c(/C=C/C(=O)c2c(OC)cccc2OC)c(OC)c1 [Example 1, 2,2′,4,6,6′-pentamethoxychalcone] | 60 |
| COc1cccc(OC)c1/C=C/C(=O)c1c(OC)cccc1OC [Compound A, reference compound] | 75 |

Tested on: Messa
Experiment: MTT test (in vitro cytotoxicity)
Type: cell-based
Conditions: Homo sapiens, MES-SA, 72 hours
Method: as §1

| SMILES | IC50 [µM] |
| --- | --- |
| COc1cc(OC)c(/C=C/C(=O)c2c(OC)cc(OC)cc2OC)c(OC)c1 [Example 2, 2,2′,4,4′,6,6′-hexamethoxychalcone] | 2.2 |
| COc1cc(OC)c(/C=C/C(=O)c2c(OC)cccc2OC)c(OC)c1 [Example 1, 2,2′,4,6,6′-pentamethoxychalcone] | 1 |
| COc1cccc(OC)c1/C=C/C(=O)c1c(OC)cccc1OC [Compound A, reference compound] | 10 |

Tested on: N2A
Experiment: MTT test (in vitro cytotoxicity)
Type: cell-based
Conditions: Mus musculus, 72 hours
Method: as §1

| SMILES | IC50 [µM] |
| --- | --- |
| COc1cc(OC)c(/C=C/C(=O)c2c(OC)cc(OC)cc2OC)c(OC)c1 [Example 2, 2,2′,4,4′,6,6′-hexamethoxychalcone] | 4 |
| COc1cc(OC)c(/C=C/C(=O)c2c(OC)cccc2OC)c(OC)c1 [Example 1, 2,2′,4,6,6′-pentamethoxychalcone] | 2.2 |
| COc1cccc(OC)c1/C=C/C(=O)c1c(OC)cccc1OC [Compound A, reference compound] | 55 |

Tested on: NIH 3T3
Experiment: MTT test (in vitro cytotoxicity)
Type: cell-based
Conditions: Mus musculus, NIH3T3, 72 hours
Method: as §1

| SMILES | IC50 [µM] |
| --- | --- |
| COc1cc(OC)c(/C=C/C(=O)c2c(OC)cc(OC)cc2OC)c(OC)c1 [Example 2, 2,2′,4,4′,6,6′-hexamethoxychalcone] | 30 |
| COc1cc(OC)c(/C=C/C(=O)c2c(OC)cccc2OC)c(OC)c1 [Example 1, 2,2′,4,6,6′-pentamethoxychalcone] | 30 |
| COc1cccc(OC)c1/C=C/C(=O)c1c(OC)cccc1OC [Compound A, reference compound] | 60 |

Tested on: RL
Experiment: MTT test (in vitro cytotoxicity)
Type: cell-based
Conditions: Homo sapiens, 72 hours
Method: as §1

| SMILES | IC50 [µM] |
| --- | --- |
| COc1cc(OC)c(/C=C/C(=O)c2c(OC)cc(OC)cc2OC)c(OC)c1 [Example 2, 2,2′,4,4′,6,6′-hexamethoxychalcone] | 0.9 |
| COc1cc(OC)c(/C=C/C(=O)c2c(OC)cccc2OC)c(OC)c1 [Example 1, 2,2′,4,6,6′-pentamethoxychalcone] | 0.8 |
| COc1cccc(OC)c1/C=C/C(=O)c1c(OC)cccc1OC [Compound A, reference compound] | 40 |

Tested on: SW48
Experiment: MTT test (in vitro cytotoxicity)
Type: cell-based
Conditions: Homo sapiens, 72 hours
Method: as §1

| SMILES | IC50 [µM] |
| --- | --- |
| COc1cc(OC)c(/C=C/C(=O)c2c(OC)cc(OC)cc2OC)c(OC)c1 [Example 2, 2,2′,4,4′,6,6′-hexamethoxychalcone] | 0.8 |
| COc1cc(OC)c(/C=C/C(=O)c2c(OC)cccc2OC)c(OC)c1 [Example 1, 2,2′,4,6,6′-pentamethoxychalcone] | 0.25 |
| COc1cccc(OC)c1/C=C/C(=O)c1c(OC)cccc1OC [Compound A, reference compound] | 10 |

Tested on: not given
Experiment: not given
Conditions: not given

| melting point [°C] | SMILES |
| --- | --- |
| 129 | COc1ccc(/C=C/C(=O)c2c(OC)cccc2OC)c(OC)c1OC [Example 11, 2,2′,3,4,6′-pentamethoxychalcone] |
| 143 | COc1cc(OC)c(OC)cc1/C=C/C(=O)c1c(OC)cccc1OC [Example 12, 2,2′,4,5,6′-pentamethoxychalcone] |
| 150 | COc1cc(OC)c(/C=C/C(=O)c2c(OC)cc(OC)cc2OC)c(OC)c1 [Example 2, 2,2′,4,4′,6,6′-hexamethoxychalcone] |
| 102 | CCOc1cccc(OCC)c1C(=O)/C=C/c1c(OC)cc(OC)cc1OC [Example 7, 2′,6′-diethoxy-2,4,6-trimethoxychalcone] |
| 167 | COc1ccc(C(=O)/C=C/c2c(OC)cc(OC)cc2OC)c(O)c1 [Example 20, 2′-hydroxy-2,4,4′,6-tetramethoxychalcone] |
| 164 | COc1cc(OC)c(C(=O)/C=C/c2c(OC)cccc2OC)c(OC)c1 [Example 18, 2,2′,4′,6,6′-pentamethoxychalcone] |
| 136 | COc1cc(/C=C/C(=O)c2c(OC)cccc2OC)cc(OC)c1OC [Example 13, 2′,3,4,5,6′-pentamethoxychalcone] |
| 188 | COc1cc(OC)c(/C=C/C(=O)c2c(OC)cc(N)cc2OC)c(OC)c1 [Example 9, 4′-amino-2,2′,4,6,6′-pentamethoxychalcone] |
| 105 | COc1ccc(/C=C/C(=O)c2c(OC)cc(OC)cc2OC)c(OC)c1 [Example 16, 2,2′,4,4′,6′-pentamethoxychalcone] |
| 162 | COc1ccc(C(=O)/C=C/c2c(OC)cc(OC)cc2OC)c(OC)c1 [Example 3, 2,2′,4,4′,6-pentamethoxychalcone] |

The next lines start with the compound.

| SMILES | melting point [°C] |
| --- | --- |
| CCOc1cc(OCC)c(/C=C/C(=O)c2c(OC)cccc2OC)c(OCC)c1 [Example 8, 2′,6′-dimethoxy-2,4,6-triethoxychalcone] | 154 |
| COc1cccc(OC)c1C(=O)/C=C/c1c(OC)c(F)c(OC)c(F)c1OC [Example 14, 3,5-difluoro-2,2′,4,6,6′-pentamethoxychalcone] | 108 |
| CCOc1cc(OCC)c(/C=C/C(=O)c2c(OCC)cc(OCC)cc2OCC)c(OCC)c1 [Example 10, 2,2′,4,4′,6,6′-hexaethoxychalcone] | 160 |
| COc1ccc(C(=O)/C=C/c2ccc(OC)c(OC)c2OC)c(O)c1 [Example 22, 2′-hydroxy-2,3,4,4′-tetramethoxychalcone] | 152 |
| COc1ccc(C(=O)/C=C/c2cc(OC)c(OC)c(OC)c2)c(O)c1 [Example 21, 2′-hydroxy-3,4,4′,5-tetramethoxychalcone] | 110 |
| COc1cccc(OC)c1C(=O)/C=C/c1c(C)cc(C)cc1C [Example 15, 2′,6′-dimethoxy-2,4,6-trimethylchalcone] | 126 |
| COc1ccc(C(=O)/C=C/c2cc(OC)c(OC)cc2OC)c(O)c1 [Example 19, 2′-hydroxy-2,4,4′,5-tetramethoxychalcone] | 170 |
